The supplement of paper PMC11451515

Key:
[1] = test system: NOMO1; test: AUC of viability dose-response curve (% viability x log10 dose units); higher = less sensitive; details: 48 h
Summary of the method: (§1)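 Leukemia cells adapted to each medium were seeded at 500 or 1000 cells/well in 1536-well plates and dosed with library compounds in DMSO at 11 threefold doses from 47 μM to 0.79 nM for 48 h at 37°C. CellTiter-Glo One luminescence was normalised per plate to DMSO and cell-free wells, then fitted with a four-parameter log-logistic model over log10 doses. Area under the curve was taken from this fit by the trapezoidal rule, with curves above full viability scaled and curves failing quality control removed.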

[2] = test system: P12-Ichikawa; test: as above; details: 48 h
Summary of the method: as §1

[3] = RPMI 5 mM glucose + 10% dialyzed FBS

SMILES | AUC of viability dose-response curve ([1]; HPLM + 10% dialyzed FBS) | AUC of viability dose-response curve ([1]; RPMI 5 mM glucose + 10% FBS) | AUC of viability dose-response curve [1, 3] | AUC of viability dose-response curve ([2]; HPLM + 10% dialyzed FBS) | AUC of viability dose-response curve ([2]; RPMI 5 mM glucose + 10% FBS) | AUC of viability dose-response curve [2, 3]
C[S+](=O)([O-])c1ccc(C(=O)Nc2ccc(Cl)c(-c3ccccn3)c2)c(Cl)c1 | 445 | 468 | 465 | 464 | 454 | 462
COc1cc2nc(N3CCN(C(=O)C4CCCO4)CC3)nc(N)c2cc1OC (stereo not drawn) | 473 | 471 | 458 | 447 | 470 | 445
CCN(CC)CCCCNc1ncc2c(n1)N(C)C(=O)N(c1c(Cl)c(OC)cc(OC)c1Cl)C2 | 429 | 453 | 451 | 450 | 446 | 448
